The supplement of paper PMC10883282

Key:
Test in all cases: relative viability vs DMSO control (72 h) (fraction); higher = more viable cells
SW982 = system: SW982
In short: (§1)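 Densities for seeding sarcoma cell lines into 384-well plates were set to give 80–90% confluence. After 24 h, 2.5 µl of serially diluted compound from source plates of 10 mM to 0.0002 mM went in, and plates stayed 72 h at 37 °C in 5% CO2 with 0.1% DMSO vehicle and a 5 µM positive control. Percent growth from ATPLite readings, averaged over up to triplicate wells, served as relative viability, rescaled so 1 means full and 0 means none.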

A204 = system: A204
In short: as §1

MES-SA = system: MES-SA
In short: as §1

VA-ES-BJ = system: VA-ES-BJ
In short: as §1

SK-ES-1 = system: SK-ES-1
In short: as §1

Cc1cc2c(F)c(Oc3ncnn4cc(OC[C@@H](C)OC(=O)[C@H](C)N)c(C)c34)ccc2[nH]1 [Brivanib_alaninate]
relative viability
Conditions | A204 | MES-SA | SK-ES-1 | SW982 | VA-ES-BJ
0.00017 µM | 1.05 | 0.919 | 1.07 | 1.05 | 1.02
0.00051 µM | 1.05 | 0.939 | 1.07 | 1.03 | 1.02
0.00152 µM | 1.07 | 0.939 | 1.06 | 1.04 | 1.03
0.00457 µM | 1.11 | 0.929 | 1.05 | 1.04 | 1.03
0.01372 µM | 1.08 | 0.927 | 1.05 | 1.05 | 1.04
0.04115 µM | 1.04 | 0.911 | 1.03 | 1.05 | 0.984
0.1235 µM | 1.03 | 0.92 | 1.06 | 1.06 | 1.02
0.3704 µM | 1.05 | 0.942 | 1.05 | 1.04 | 1.04
1.111 µM | 0.999 | 0.956 | 1.044 | 1.09 | 1.07
3.333 µM | 0.958 | 0.829 | 0.991 | 1.08 | 1.03
10 µM | 0.567 | 0.5146 | 0.921 | 1.12 | 0.983

O=C(c1ccc(F)c(F)c1Nc1ccc(I)cc1F)N1CC(O)([C@@H]2CCCCN2)C1 [Cobimetinib]
relative viability
Conditions | A204 | MES-SA | SK-ES-1 | SW982 | VA-ES-BJ
0.00017 µM | 1.1 | 0.934 | 1.04 | 1.04 | 1.05
0.00051 µM | 1.11 | 0.948 | 1 | 1.02 | 1.07
0.00152 µM | 1.12 | 0.925 | 1.04 | 1 | 1.05
0.00457 µM | 1.11 | 0.899 | 1.03 | 1.01 | 1.02
0.01372 µM | 1.079 | 0.896 | 1.04 | 0.98 | 0.982
0.04115 µM | 1.04 | 0.824 | 1.01 | 0.942 | 0.906
0.1235 µM | 1.01 | 0.786 | 1.02 | 0.878 | 0.747
0.3704 µM | 0.807 | 0.752 | 0.982 | 0.804 | 0.638
1.111 µM | 0.616 | 0.721 | 0.923 | 0.765 | 0.567
3.333 µM | 0.424 | 0.6391 | 0.842 | 0.578 | 0.451
10 µM | 0.0102 | 0.0114 | 0.0122 | 0.0118 | 0.209
